Source: paper PMC6949133, “Application of a novel regulatable Cre recombinase system to define the role of liver and gut metabolism in drug oral bioavailability” (The Biochemical journal, 2015)

Experiments:
[1] = In vivo pharmacokinetics of probe drugs in WT and ERL (POR-deleted) mice, blood LC-MS/MS; conditions: for Cl / Cmax: mean ± S.D., n=3; for Cmax: po
Procedure: WT and ERL mice (n = 3) were pre-treated with corn oil or 3MC (4 or 40 mg/kg). A single dose of midazolam (5 mg/kg p.o.), or nelfinavir (50 mg/kg p.o.) or paroxetine (10 mg/kg p.o.) was administered on day 14 after 3MC treatment. Whole blood (10 μl) was taken from the tail vein at timed intervals after drug administration and transferred into a tube containing heparin (10 μl, 15 IU/ml).
For midazolam analysis, internal standard solution (10 μl; 500 ng of caffeine and 500 ng of resorpine) was added and proteins were precipitated using methanol (75 μl), followed by 8% sulfosalicylic acid (55 μl). Samples were mixed for 1 min and centrifuged at 13 000 g for 5 min. The supernatant was analysed for midazolam and the two internal standards by LC–MS/MS, as described previously. Standard curves were constructed by spiking blank blood samples with known amounts of midazolam. Extraction and protein precipitation were carried out as outlined above for the test samples.
For nelfinavir and paroxetine analysis, mouse blood extraction was performed by a method based on protein precipitation using acetonitrile containing sulfadimethoxine (100 ng/ml) as internal standard. Samples were vortex mixed for 1 min followed by centrifugation at 2800 g for 10 min. Supernatants were analysed by UPLC–MS/MS using a Xevo TQs mass spectrometer (Waters). Nelfinavir, paroxetine and sulfadimethoxine were separated on an Acquity UPLC BEH C18 column (1.7 μm particle size, 50 × 2.1 mm i.d.) by gradient elution with acetonitrile and water at a flow rate 0.6 ml/min. The cycle time of each analysis was 3 min. Matrix effects were assessed by dilution. Quantification of the analytes was performed in electrospray positive ionization mode using multiple reaction monitoring.
Pharmacokinetic parameters were calculated using WinNonLin software, version 3.1. A simple non-compartmental model was used to calculate the area under the curve (AUC), terminal half-life, Cmax and clearance. Statistical analysis of pharmacokinetic data was carried out using Student’s t tests.

POR [2] = assay: POR expression by Western blot/densitometry in tissues of ERL mice after Cyp1a1 inducer; assay type: in vivo, mouse
Procedure: (§1) Single doses of βNF (80 mg/kg body weight as a suspension in corn oil) were administered intraperitoneally (i.p.). Doses of 3MC between 0.5 and 40 mg/kg body weight (single injections) were administered i.p. in corn oil; in some experiments, three daily doses were administered, as detailed in the Figure legends. Mice were killed at the same time of day by a rising concentration of CO2 9 or 14 days after dosing and the following tissues removed and snap-frozen in liquid nitrogen: liver, lung, kidney, small intestine, large intestine, spleen and skin. Samples were then stored at − 80°C until processing for sub-cellular fractions.
Microsomal fractions were prepared as described previously and stored at − 70°C until required. Microsomal protein concentrations were determined using the Bio-Rad Protein Assay Reagent (Bio-Rad Laboratories) and Western blot analysis was preformed as described previously using polyclonal antisera to rat P450s and POR [27, 28]. Immunoreactive proteins were detected using horseradish peroxidase (HRP)-conjugated polyclonal goat anti-rabbit, anti-mouse or anti-sheep immunoglobulin secondary antibodies, as appropriate (Dako). Bands were visualized using Immobilon™ chemiluminescent HRP-conjugated substrate (Millipore) and a FUJIFILM LAS-3000 mini imaging system (Fujifilm UK.). Densitometric analysis was performed using Multi Gauge V2.2 software (Fujifilm UK).

POR [3] = assay: POR activity in microsomes of treated ERL mice, cytochrome c reduction; assay type: in vivo, mouse
Procedure: (§2) The low levels of cytochrome c reduction detected in the small intestine were further decreased (by 78%) in ERL animals treated with 40 mg/kg 3MC (36.2 ± 15.6 compared with 8.2 ± 3.3 nmol cytochrome c reduced/min/mg respectively, n = 3, mean + S.D., P < 0.01). No P450 activity was detected in small intestinal microsomes from either WT or ERL animals.

P450 = assay: P450-mediated substrate turnover in liver of treated ERL mice; assay type: in vivo, mouse; conditions: 3MC 40 mg/kg, n=6
Procedure: as §2

[4] = Tolerability and gross liver phenotype of ERL mice after inducer dosing; assay type: in vivo, mouse
Procedure: as §1
The effects of a single dose of the polycyclic aromatic hydrocarbon AhR ligand βNF (80 mg/kg i.p.) on ERL mice were investigated in initial range-finding experiments (Figure 2A). Liver and small intestine tissues were harvested 9 or 14 days after dosing. […] On post mortem examination, βNF treated ERL mice had pale, mottled, enlarged livers which weighed approximately 60% more than those of either corn oil treated ERL mice or βNF treated WT animals. This phenotype is characteristic of POR deletion and is also observed in HRN and RCN animals. The effect on POR expression in the ERL liver and small intestine of a single dose of βNF (80 mg/kg i.p.) was similar to that observed in RCN mice following four daily doses (compare Figure 2A with Figure 1 of Finn et al.).
Both ERL and WT animals lost weight in response to this treatment.

[5] = test system: PhIP-DNA adducts in the colon; set-up: method as in PMID 21940903; conditions: RCN mice dosed orally with PhIP 2 weeks after 3MC, compared with PhIP alone; cited from earlier work
[6] = liver and gut POR deletion compared with WT/control
[7] = liver only POR deletion relative to control

`Cc1ncc2n1-c1ccc(Cl)cc1C(c1ccccc1F)=NC2` [Midazolam, midazolam] showed a Cl ([1]; Control (WT + corn oil), single p.o. dose nelfinavir 50 mg/kg, paroxetine 10 mg/kg or midazolam 5 mg/kg) of 113 ± 35 mL/min/kg, a Cmax ([1]; ERL (Por^lox/lox/Cre^Cyp1a1-KI), mouse, in vivo, Liver and gut null (ERL + 3MC 40 mg/kg, day 14), single p.o. dose nelfinavir 50, paroxetine 10 or midazolam 5 mg/kg) of 4460 ± 1530 ng/mL and a Cmax ([1]; ERL (Por^lox/lox/Cre^Cyp1a1-KI), mouse, in vivo, Liver null (ERL + 3MC 4 mg/kg, day 14), single p.o. dose nelfinavir 50, paroxetine 10 or midazolam 5 mg/kg) of 1850 ± 340 ng/mL. For the same compound, the Cl ([1]; Liver and gut null (ERL + 3MC 40 mg/kg, day 14), single p.o. dose nelfinavir 50, paroxetine 10 or midazolam 5 mg/kg) was 4.3 ± 0.9^••◦ ml/min/kg, the Cl ([1]; Liver null (ERL + 3MC 4 mg/kg, day 14), single p.o. dose nelfinavir 50, paroxetine 10 or midazolam 5 mg/kg) was 13 ± 5 mL/min/kg and the Cmax ([1]; WT (Por^lox/lox), mouse, in vivo, Control (WT + corn oil), single p.o. dose nelfinavir 50 mg/kg, paroxetine 10 mg/kg or midazolam 5 mg/kg) was 610 ± 110 ng/mL. For the same compound, the “increase in AUC” value [1, 6] was 22.9 fold, the “increase in Cmax” value [1, 6] was 7.3 fold and the increase in half-life [1, 6] was 1.6 fold. For the same compound, the decrease in clearance ([1]; liver and gut POR deletion relative to control) was 26.3 fold, the decrease in clearance [1, 7] was 9 fold and the “increase in AUC” value [1, 7] was 9 fold. For the same compound, the “increase in Cmax” value [1, 7] was 3 fold.
In the case of `Cc1ccc2cc3c(ccc4ccccc43)c3c2c1CC3` [3MC, 3-methylcholanthrene], the “residual hepatic POR expression (densitometric quantification)” value (POR [2]; ERL mice, 3MC 40 mg/kg i.p., results not shown) is reported as less than 4%, the “single dose required for knockdown in both liver and small intestine” value (POR [2]; ERL mice, i.p.) is reported as 20 to 40 mg/kg and the “single dose for knockdown of hepatic POR expression” value (POR [2]; ERL mice, i.p., liver only) is reported as 4 mg/kg. The “POR knockdown in large intestine” value (POR [2]; ERL mice, three daily doses of 3MC 40 mg/kg/day i.p., harvested 14 days after initial dose) was 50%, the “dose needed to knockdown POR in liver of ERL mice, lower than in RCN animals” value (POR [2]; ERL vs RCN animals (ref 20)) was 10 fold and the “decrease of cytochrome c reduction in small intestine” value (POR [3]; ERL animals treated with 40 mg/kg 3MC) was 78%. The “hepatic POR activity as % of WT” value (POR [3]; livers from ERL mice 14 days after 3MC 40 mg/kg) was “approximately 4%”, the “hepatic POR activity (cytochrome c reduction)” value (POR [3]; livers from ERL mice 14 days after 3MC 40 mg/kg, n=3, mean ± S.D., WT 60.3 ± 20.8) was 2.2 ± 1.9 nmol cytochrome c reduced/min/mg and the “cytochrome c reduction in small intestine” value (POR [3]; small intestine of ERL animals treated with 40 mg/kg 3MC, n=3, mean ± S.D., comparator 36.2 ± 15.6) was 8.2 ± 3.3 nmol cytochrome c reduced/min/mg. The “reduction in P450-mediated turnover of 7-benzyloxy-4-(trifluoromethyl)-coumarin” value (P450) was 95%, the “reduction in P450-mediated turnover of methoxyresorufin” value (P450) was 70% and the “increase in liver weight” value ([4]; single dose 3MC 40 mg/kg i.p., post mortem) was 60–90%.
In the case of `Cn1c(N)nc2ncc(-c3ccccc3)cc21` [PhIP, 2-amino-1-methyl-6-phenylimidazo[4,5-b]pyridine], the “reduction of adduct formation in the colon” value [5] is listed as 50%.
With `O=c1cc(-c2ccccc2)oc2ccc3ccccc3c12` [βNF, β-naphthoflavone] the “body weight loss over the course of the treatment” value ([4]; single dose βNF 80 mg/kg i.p.) was 2 to 4 g and the “increase in liver weight vs corn oil treated ERL or βNF treated WT” value ([4]; single dose βNF 80 mg/kg i.p., 9 or 14 days) was “approximately 60%”.
For `Fc1ccc([C@@H]2CCNC[C@H]2COc2ccc3c(c2)OCO3)cc1` [Paroxetine, paroxetine], the increase in half-life ([1]; ERL (Por^lox/lox/Cre^Cyp1a1-KI), control: WT (Por^lox/lox), mouse, in vivo) was 3.5 fold, the “change in Cmax” value ([1]; mouse, in vivo) was “essentially unchanged” and the decrease in clearance ([1]; mouse, in vivo) was ~ 3 fold. The “increase in AUC” value ([1]; mouse, in vivo) was 1.5 fold.
